The target in one data set is human TRPA1 ion channel (Homo sapiens (Human), UniProt O75762). Kind of data set: Assay A: TRPA1 assay (FLIPR calcium, AITC agonism, HEK293 over-expressing human TRPA1). It counts as cell-based. The following applies: HEK293 over-expressing human TRPA1, AITC 10 μM, FLIPRtetra; read-out: hTRPA1 IC50. The protocol:
A human HEK293 cell line over-expressing the human TRPA1 ion channel (Perkin Elmer, Product No. AX-004-PCL) was used as a test system for compound efficacy and potency. Compound activity was determined by measuring the effect of compounds on intracellular calcium concentration induced by AITC (Allylisothiocyanat) agonism in a FLIPRtetra system (Molecular Devices).
The cells were obtained as frozen cells in cryo-vials and stored until use at −150° C. Cells were grown in culture medium (MEM/EBSS medium with 10% FCS and 0.4 mg/ML Geneticin). […] For sub-culturing cells were detached from flasks by Versene. At the day before the assay, cells were detached, washed twice with medium (MEM/EBSS medium with 10% FCS) and 20000 cells in 20 μl/well were seeded to Poly D-Lysin biocoated 384-well plates (black, clear bottom, Cat. 356697) from Corning. Plates were incubated for 24 hours at 37° C./5% CO2 before use in the assay.
The test compounds were dissolved in 100% DMSO at a concentration of 10 mM and in a first step diluted in DMSO to a concentration of 5 mM, followed by serial dilution steps in 100% DMSO. Dilution factor and number of dilution steps may vary according to needs. Typically 8 different concentrations by 1:5 dilutions were prepared, further intermediate dilutions (1:20) of the substances were carried out with HBSS/HEPES buffer (1×HEPES, Cat. 14065 from Gibco, 20 mM HEPES, Cat. 83264 from SIGMA, 0.1% BSA Cat. 11926 from Invitrogen, pH 7,4
At the assay day cells were washed 3× with assay puffer, 20 μL buffer remained in the wells after washing. 10 μL Ca6 kit (Cat. R8191 MolecularDevices) loading buffer in HBSS/HEPES was added to the cells and the plates were incubated with lid for 120 minutes at […]. 10 μL of compound or controls in HBSS/HEPES buffer/5% DMSO from the intermediate dilution plate were carefully added to the wells. […] Finally 10 μL of the agonist AITC 50 μM dissolved in HBSS/HEPES buffer/0.05% DMSO (final concentration 10 μM) was added to the wells followed by an additional read on the FLIPRtetra device for 10 minutes. The area under the signal curve (AUC) after AITC addition was used for IC50/% inhibition calculations
Data Evaluation and Calculation:
Each assay microtiter plate contained wells with vehicle (1% DMSO) controls instead of compound as controls for AITC induced luminescence (100% CTL; high controls) and wells with vehicle controls without AITC as controls for non-specific changes in luminescence (0% CTL; low controls).
The analysis of the data was performed by the calculation of the area under signal curve of the individual wells. Based on this values the % value for the measurement of each substance concentration was calculated (AUC(sample)−AUC(low))*100/(AUC(high)−AUC(low)) using MegaLab software (in house development). The IC50 values were calculated from the % control values using MegaLab software. Calculation: [y=(a−d)/(1+(x/c)^b)+d], a=low value, d=high value; x=cone M; c=IC50 M; b=hill; y=% ctrl

The nature of data set [1]: Assay B: Microsomal clearance. The class given is in vitro ADME, human. Particulars: pooled liver microsomes, 1 μM test compound, 37° C. The protocol: Assay B: Microsomal Clearance:
The metabolic degradation of the test compound is assayed at 37° C. with pooled liver microsomes. The final incubation volume of 100 μl per time point contains TRIS buffer pH 7.6 at RT (0.1 M), magnesium chloride (5 mM), microsomal protein (1 mg/ml) and the test compound at a final concentration of 1 μM.
Following a short preincubation period at 37° C., the reactions are initiated by addition of beta-nicotinamide adenine dinucleotide phosphate, reduced form (NADPH, 1 mM) and terminated by transferring an aliquot into solvent after different time points (0, 5, 15, 30, 60 min). Additionally, the NADPH-independent degradation is monitored in incubations without NADPH, terminated at the last time point. The [%] remaining test compound after NADPH independent incubation is reflected by the parameter c(control) (metabolic stability). The quenched incubations are pelleted by centrifugation (10000 g, 5 min).
An aliquot of the supernatant is assayed by LC-MS/MS for the amount of parent compound. The half-life (t½ INVITRO) is determined by the slope of the semilogarithmic plot of the concentration-time profile.
The intrinsic clearance (CL_[…]) is calculated by considering the amount of protein in the incubation: CL_[…] [μl/min/mg protein]=(Ln 2/(half-life [min]*protein content [mg/ml]))*1000 CL_[…]_INVIVO [ml/min/kg]=(CL_[…] [μL/min/mg protein]×MPPGL [mg protein/g liver]×liver factor [g/kg body weight])/1000 Qh [%]=CL [ml/min/kg]/hepatic blood flow [ml/min/kg])
(§1) Hepatocellularity, human: 120×10e6 cells/g liver
(§2) Liver factor, human: 25.7 g/kg bodyweight
(§3) Blood flow, human: 21 ml/(min×kg)
(Liver microsomes are vesicles of endoplasmic reticulum, rich in cytochrome P450 enzymes.)

A short description of data set [2]: Assay C: Hepatocyte clearance. The class given is in vitro ADME, human. The following applies: hepatocyte suspension, 1 μM test compound. The protocol: Assay C: Hepatocyte Clearance
The metabolic degradation of the test compound is assayed in a hepatocyte suspension. Hepatocytes (cryopreserved) are incubated in. Dulbecco's modified eagle medium (supplemented with 3.5 μg glucagon/500 mL, 2.5 mg insulin/500 mL and 3.75 mg/500 mL hydrocortison) containing 5% or 50% species serum.
Following a 30 min preincubation in an incubator (37° C., 10% CO2) 5 μl of test compound solution (80 μM; from 2 mM in DMSO stock solution diluted 1:25 with medium) are added into 395 μl hepatocyte suspension (cell density in the range 0.25-5 Mio cells/mL depending on the species, typically 1 Mio cells/mL; final concentration of test compound 1 μM, final DMSO concentration 0.05%).
The cells are incubated for six hours (incubator, orbital shaker) and samples (25 μl) are taken at 0, 0.5, 1, 2, 4 and 6 hours. Samples are transferred into acetonitrile and pelleted by centrifugation (5 min). The supernatant is transferred to a new 96-deepwell plate, evaporated under nitrogen and resuspended.
Decline of parent compound is analyzed by HPLC-MS/MS
CLint is calculated as follows CL_[…]=Dose/AUC=(C0/CD)/(AUD+clast/k)×1000/60. CO: initial concentration in the incubation [μM], CD: cell density of vital cells [10e6 cells/mL], AUD: area under the data [μM×h], clast: concentration of last data point [μM], k: slope of the regression line for parent decline [h-1].
The calculated in vitro hepatic intrinsic clearance can be scaled up to the intrinsic in vivo hepatic Clearance and used to predict hepatic in vivo blood clearance (CL) by the use of a liver model (well stirred model). CL_[…]_INVIVO [ml/min/kg]=(CL_[…] [μL/min/10e6 cells]×hepatocellularity [10e6 cells/g liver]×liver factor [g/kg body weight])/1000 CL [ml/min/kg]=CL_[…]_INVIVO [ml/min/kg]×hepatic blood flow [ml/min/kg]/(CL_[…]_INVIVO [ml/min/kg]+hepatic blood flow [ml/min/kg]) Qh [%]=CL [ml/min/kg]/hepatic blood flow [ml/min/kg])
as §1, §2, §3

Data set [3] in a line: Assay D: Metabolism in human hepatocytes in vitro. The class given is in vitro ADME. Particulars: primary human hepatocytes, 10 μM. Here is the method:
Assay D: Metabolism in Human Hepatocytes In Vitro
The metabolic pathway of a test compound is investigated using primary human hepatocytes in suspension.
Following a 30 min preincubation in a cell culture incubator (37° C., 10% CO2), test compound solution is spiked into the hepatocyte suspension to obtain a final cell density of 1.0*10^6 to 4.0*10^6 cells/ml (depending on the metabolic turnover rate of the compound observed with primary human hepatocytes), a final test compound concentration of 10 μM, and a final DMSO concentration of 0.05%.
The cells are incubated for six hours in a cell culture incubator on a horizontal shaker, and samples are removed from the incubation after 0, 0.5, 1, 2, 4 or 6 hours, depending on the metabolic turnover rate. Samples are quenched with acetonitrile and pelleted by centrifugation. The supernatant is transferred to a 96-deepwell plate, evaporated under nitrogen and resuspended prior to bioanalysis by liquid chromatography-high resolution mass spectrometry for identification of putative metabolites.

Bounds are passed on as bounds.

human TRPA1 ion channel, sequence (O75762 whole entry): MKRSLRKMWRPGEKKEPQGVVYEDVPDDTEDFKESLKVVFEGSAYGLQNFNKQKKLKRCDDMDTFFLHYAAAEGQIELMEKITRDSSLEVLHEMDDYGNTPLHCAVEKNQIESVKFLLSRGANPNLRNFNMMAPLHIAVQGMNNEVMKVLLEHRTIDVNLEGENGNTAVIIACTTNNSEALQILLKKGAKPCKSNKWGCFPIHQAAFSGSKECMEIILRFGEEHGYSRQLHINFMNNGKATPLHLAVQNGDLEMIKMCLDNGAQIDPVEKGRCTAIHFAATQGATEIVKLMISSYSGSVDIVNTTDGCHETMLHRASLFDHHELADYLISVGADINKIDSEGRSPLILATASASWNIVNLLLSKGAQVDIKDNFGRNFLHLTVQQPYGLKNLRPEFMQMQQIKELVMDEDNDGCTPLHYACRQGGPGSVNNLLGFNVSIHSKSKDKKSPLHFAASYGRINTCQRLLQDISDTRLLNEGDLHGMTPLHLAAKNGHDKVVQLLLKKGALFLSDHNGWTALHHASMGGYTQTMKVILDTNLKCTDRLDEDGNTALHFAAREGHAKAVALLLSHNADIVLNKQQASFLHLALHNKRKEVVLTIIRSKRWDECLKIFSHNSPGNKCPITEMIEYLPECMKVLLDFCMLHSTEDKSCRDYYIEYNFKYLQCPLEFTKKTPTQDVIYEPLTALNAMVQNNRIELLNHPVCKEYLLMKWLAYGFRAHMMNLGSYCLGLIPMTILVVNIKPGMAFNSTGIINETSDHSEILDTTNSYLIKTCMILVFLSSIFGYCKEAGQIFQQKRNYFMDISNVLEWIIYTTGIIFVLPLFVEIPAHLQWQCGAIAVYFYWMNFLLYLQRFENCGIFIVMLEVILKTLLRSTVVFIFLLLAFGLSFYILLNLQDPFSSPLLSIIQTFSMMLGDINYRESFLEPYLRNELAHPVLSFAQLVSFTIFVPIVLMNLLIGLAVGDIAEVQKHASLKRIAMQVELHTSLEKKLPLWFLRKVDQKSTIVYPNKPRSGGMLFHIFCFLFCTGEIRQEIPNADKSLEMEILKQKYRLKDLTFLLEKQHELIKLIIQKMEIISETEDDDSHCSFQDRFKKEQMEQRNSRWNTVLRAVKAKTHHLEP

For `O=C1NCCc2c1sc1ncn(Cc3nnn(C[C@H](O)c4ccc(Cl)cc4)n3)c(=O)c21` [Example 6], the IC50 (in general, the concentration at which inhibition is half-maximal) on human TRPA1 ion channel worked out at 11 nM. In data set [1], the “human LM [% Qh]” value was less than 23 % Qh. Besides, the “human Hepatocytes [% Qh]” value in data set [2] was determined as 7 % Qh. Moreover, the “Major metabolite observed: Mechanism” value in data set [3] (Metabolite M1) is “Oxygenation”; in data set [3] (Metabolite M2), “Dehydrogenation”; in data set [3] (Metabolite M3) it was “Glucuronidation”.

In the case of `Cc1c(C(N)=O)sc2ncn(Cc3nnn(C[C@H](O)c4cc5ccccc5s4)n3)c(=O)c12` [Example 22], on human TRPA1 ion channel, the concentration for half-maximal inhibition (IC50) worked out at 7 nM. In data set [1], the “human LM [% Qh]” value was determined as 35 % Qh. For the same molecule, the “human Hepatocytes [% Qh]” value in data set [2] worked out at 44 % Qh.

`NC(=O)c1sc2ncn(Cc3nnn(C[C@H](O)c4ccc(Cl)cc4)n3)c(=O)c2c1Cl` [Example 23]: on human TRPA1 ion channel, the IC50 stood at 6 nM. Also, the “human LM [% Qh]” value in data set [1] was less than 23 % Qh. Besides, in data set [2], the “human Hepatocytes [% Qh]” value is given as 12 % Qh.
